Laboratory results published in ChEMBL document CHEMBL1201862, “PubChem BioAssay data set” (2004).
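Grown in 96-well plates, cells were treated for 48 hours with each compound at five concentrations. Insufficient inhibition: endpoint recorded as highest concentration tested. GI50 = concentration required for 50% inhibition of growth.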 Activity calls are given as the source filed them. Rule as the data show it: active = GI50 up to about 1.1 µM and inactive = higher.

Key:
Assay in all cases: inhibition of tumour cell growth, NCI panel, 48 h
[1] = system: DMS-114
[2] = system: HOP-18
[3] = system: M19-MEL
[4] = system: KM-20L2
[5] = system: XF498
[6] = system: SNB-78
[7] = system: LXFL 529
[8] = system: DMS-273
[9] = system: RXF 631

Compound	GI50 [1]	GI50 [2]	GI50 [3]	GI50 [4]	GI50 [5]	GI50 [6]	GI50 [7]	GI50 [8]	GI50 [9]
Cc1cc(N(CCOS(C)(=O)=O)CCOS(C)(=O)=O)ccc1/C=N/c1ccc(-c2nc(Cc3ccccc3)sc2C)cc1	7.91 µM (inactive)	6.64 µM (inactive)	10 µM (inactive)	7.19 µM (inactive)	2.26 µM (inactive)	32.9 µM (inactive)	16.6 µM (inactive)	1.87 µM (inactive)	
COc1ccc(-c2cc3ccccc3[nH]c2=O)cc1OC		> 100 µM (inactive)	> 100 µM (inactive)	> 100 µM (inactive)	> 100 µM (inactive)	> 100 µM (inactive)	> 100 µM (inactive)	> 100 µM (inactive)	
CC1=C2C(=O)C3[C@@H](CCC4=CC(=O)CC[C@@]43C)C2CC[C@]12O[C@@H]1C[C@H](C)CN[C@H]1[C@H]2C (some centres not stated)	15.3 µM (inactive)	49.3 µM (inactive)	36.2 µM (inactive)	68.4 µM (inactive)	12.6 µM (inactive)		34.5 µM (inactive)	17.7 µM (inactive)	
CC(C)C(NCc1c2ccccc2[n+](C)c2ccccc12)C(=O)O (configuration not stated)	2.28 µM (inactive)	5.78 µM (inactive)	7.33 µM (inactive)	2.78 µM (inactive)	4.99 µM (inactive)	5.73 µM (inactive)	3.53 µM (inactive)	3.25 µM (inactive)	4.74 µM (inactive)
COc1cccc2c1C(=O)OC2c1cccc2ccccc12 (configuration not stated)	> 100 µM (inactive)	> 85.5 µM (inactive)	> 100 µM (inactive)	> 100 µM (inactive)	34.8 µM (inactive)	> 100 µM (inactive)	> 100 µM (inactive)	> 100 µM (inactive)	
COc1cc2c(cc1OC)[C@@H](Nc1ccc(F)cc1)C1COC(=O)[C@@H]1C2c1cc(OC)c(O)c(OC)c1 (some centres not stated)	1.15 µM (inactive)	5.35 µM (inactive)	5.08 µM (inactive)	3.04 µM (inactive)	3 µM (inactive)	> 20.4 µM (inactive)	19.6 µM (inactive)	0.0832 µM (active)	1.73 µM (inactive)
CCC1(Cl)C(=O)NC(=O)N(C2CC(O)C(CO)O2)C1N=[N+]=[N-] (configuration not stated)	80.4 µM (inactive)		> 100 µM (inactive)	> 100 µM (inactive)	> 100 µM (inactive)	> 100 µM (inactive)	> 100 µM (inactive)	> 100 µM (inactive)	> 100 µM (inactive)
N#CC(N)(C(=O)C(=O)NCCCNC(=O)C(=O)C(N)(C#N)c1ccc(Cl)cc1)c1ccc(Cl)cc1 (configuration not stated)	> 100 µM (inactive)	> 100 µM (inactive)	> 100 µM (inactive)	> 100 µM (inactive)	> 100 µM (inactive)	> 100 µM (inactive)	> 100 µM (inactive)	> 100 µM (inactive)	> 100 µM (inactive)
CC/C(CC(=O)CCC(=O)Nc1c(C)cccc1C)=N\NC(=O)NN		> 100 µM (inactive)	> 100 µM (inactive)	> 100 µM (inactive)		> 100 µM (inactive)	> 100 µM (inactive)		> 100 µM (inactive)
CC1=CCC2(C#N)CCC1C2=O (configuration not stated)	> 100 µM (inactive)		> 100 µM (inactive)	> 100 µM (inactive)	> 100 µM (inactive)	> 100 µM (inactive)	> 100 µM (inactive)		> 100 µM (inactive)
CCOC(=O)CN(Cc1ccccc1)Cc1c(C(=O)c2ccccc2)c2ccccc2n1C(=O)c1ccccc1	> 100 µM (inactive)		> 100 µM (inactive)	> 100 µM (inactive)	73.1 µM (inactive)	> 100 µM (inactive)	8.57 µM (inactive)	> 100 µM (inactive)	
CS/C(c1ccccc1)=[N+](\[O-])Cc1ccccc1	45.9 µM (inactive)	> 100 µM (inactive)	> 100 µM (inactive)	> 100 µM (inactive)	> 100 µM (inactive)	> 100 µM (inactive)	> 100 µM (inactive)		
